# Experimental data from patent US7005424B2, “Nucleic acid encoding an E1A gene product sensitizes HER-2/neu overexpressing cancer cells to chemotherapy” (priority 1996, dated 2006).
# Starred links: 1 amine or outer side, 2 acyl side, 3 side chain; linkers in the order of their positions; H or OH if unused. Positions of bridges follow the written chain, without caps; N, C: chain ends. Non-standard residues stand in square brackets, D forms with d. Residues, ends and D or L forms follow the SMILES beside them. Chains are numbered I, II in the order given. Actinocin(9to1) = Cc1c2oc3c(C)ccc(C(=O)[*:1])c3nc-2c(C(=O)[*:2])c(N)c1=O; NMeV = CN[C@H](C(=O)O)C(C)C; Sar = CNCC(=O)O
# Columns and labels:
# [1] = in vivo; cited from earlier work
# MDA-MB-435 cells = assay: MTT assay, Ad.E1A and Taxol; format: cell-based; conditions: low neu expressing cells
# Experimental: The percentage of cell growth was calculated by defining the absorption of cells not treated with taxol or E1A as 100%. Bars, SD.
# FIG. 34. […] The percentage of cell growth was calculated by defining the absorption of cells not treated with taxol or E1A as 100%. Bars, SD.
# Taxol was given from 0.1 μM to 100 μM (FIGS. 33B and 33D).
# B.E1A1.Hy = assay: MTT assay, taxol on rat fibroblasts with various neu and E1A expression; format: cell-based; conditions: taxol 0.1–10 μM; compared with B104-1-1, B.neo, B.E1A1.D1
# Experimental: FIG. 30B. Effect of taxol (0.01–100 μM) on the cell growth of rat fibroblast with various HER-2/neu and E1A expression. […] Bars, SD.
# In order to examine the effects of taxol on cell growth rat fibroblasts with various neu and E1A expression were grown in varying concentrations of taxol 0.01–100 μM. The cell lysates were subsequently run through 8% SDS-PAge and blotted with anti-p185 and anti-E1A antibodies (FIG. 30A). The effects on cell growth were measured using the MTT assay as described earlier.
smiles,measurement,setting,value
"Cc1c2oc3c(C)ccc(C(=O)N[C@@H]4C(=O)N[C@H](C(C)C)C(=O)N5CCC[C@H]5C(=O)N(C)CC(=O)N(C)[C@@H](C(C)C)C(=O)O[C@@H]4C)c3nc-2c(C(=O)N[C@@H]2C(=O)N[C@H](C(C)C)C(=O)N3CCC[C@H]3C(=O)N(C)CC(=O)N(C)[C@@H](C(C)C)C(=O)O[C@@H]2C)c(N)c1=O [Actinomycin D] (I: T[dV]P[Sar][NMeV] / II: T[dV]P[Sar][NMeV]; ester I:1-I:C, II:1-II:C; linker I:N-II:N via Actinocin(9to1))",dose excreted or detected intact in the urine,[1],10%
CC(=O)O[C@H]1C(=O)[C@@]2(C)[C@H]([C@H](OC(=O)c3ccccc3)[C@]3(O)C[C@H](OC(=O)[C@H](O)[C@@H](NC(=O)c4ccccc4)c4ccccc4)C(C)=C1C3(C)C)[C@]1(OC(C)=O)CO[C@@H]1C[C@@H]2O [Taxol],sensitivity to taxol alone,MDA-MB-435 cells,more sensitive to taxol alone
same,inhibition of cell growth (MTT),B.E1A1.Hy,highest inhibition of cell growth
CC[C@]1(O)C[C@@H]2CN(CCc3c([nH]c4ccccc34)[C@@](C(=O)OC)(c3cc4c(cc3OC)N(C)[C@H]3[C@@](O)(C(=O)OC)[C@H](OC(C)=O)[C@]5(CC)C=CCN6CC[C@]43[C@@H]65)C2)C1 [Vinblastine],dose excreted or detected intact in the urine,[1],Approximately 15%
